Here are results for 5 molecules from patent US10265289B2, “Method and medicines for treating melanoma” (SICHUAN JIUZHANG BIOLOGICAL SCIENCE AND TECHNOLOGY CO., LTD., priority 2015, dated 2019).

Series [1] has as its system mouse melanoma B16. Description: Example 6: chlorogenic acid-adriamycin or chlorogenic acid-cisplatin combination against mouse melanoma B16. In kind it is in vivo. An excerpt: (§1) Each group contains 15 animals.
For series [2], the system named is M1-type macrophage markers iNOS, IL-12, TNF-α and M2-type macrophage marker Arg. Description: Example 1: macrophage marker expression (flow cytometer, real-time fluorescent quantified PCR) in mouse melanoma B16 model. To be noted: 5, 10, 20 mg/kg i.p. once a day for 13 days. The series is classed as in vivo. Here is the method:
Each group has 15 animals. […] After successful anesthesia of mice, bilateral eyeballs were removed and mice were killed by bleeding. […] Mice were placed in supine position, with segmental […] being toward up. 5 ml serum-free DMEM medium preheated at 37° C. was drawn out using 5 ml aseptic syringe, and middle-lower abdominal skin of mice was lifted with a tweezer, then 5 ml pre-suctioned serum-free DMEM medium preheated at 37° C. was injected to abdominal cavity (note: needlepoint being toward up, avoiding intestinal canal and fat). After that, bilateral peritoneal wall was gently kneaded and pressed for about 20-30 seconds, to make the intraperitoneal fluid fully flow. When collecting the peritoneal fluid, a little cut was opened on mouse hypogastric region using a surgical scissor, and skin was […] toward two sides, to thoroughly expose the peritoneum, then it was wiped and cleaned with 75% alcoholic cotton balls for sterilization. Further, about […] of little cut was opened on mouse peritoneum using ophthalmic scissors, and the peritoneal fluid was drawn back with 5 ml aseptic syringe (Try not to absorb intestinal canal and fat, otherwise, it is easy to cause contamination of fibroblasts), then transferred to 15.0 ml centrifuge tube and centrifugated at 1200 rpm/min for 5 min, to remove the supernatant fluid. The residue was re-suspended in sterile normal saline at […] and transferred into 1.5 ml centrifuge tube for use. […] During enzymatic digestion, centrifuge tubes were shaken every 10-15 minutes. When the fluid in centrifuge tubes became turbid, the piece of tumor tissue had already disintegrated and lost its massive shape. Once being shaken, the mass would become cell clumps or single cell, indicating the tumor tissue piece had already been fully digested. The enzymatic digestion time can be suitably shortened or elongated as the digestion degree of tumor tissue. […] Cells were re-suspended in sterile normal saline at […], and transferred to 1.5 ml centrifuge tubes for use. (3) Cell phenotype was detected by flow cytometer, and the corresponding marker of same sample was determined using real-time fluorescent quantified PCR. Results were shown in FIGS. 1-3, in which FIGS. 1-3 are respectively the detection result graphs of iNOS, IL-12, Arg expression in example 1. FIG. 4 is the detection result graph of TNF-α expression in example 1.
(A flow cytometer gives signals particle by particle.)

For series [3], the system named is M1-type macrophage marker iNOS and M2-type macrophage marker Arg. The experiment in a line: Example 2: maintenance of M1-type macrophages (LPS+INFγ) in mouse melanoma B16 model. The series is classed as in vivo. The note with it: LPS + INFγ + chlorogenic acid 5, 10, 20 mg/kg, dose-dependent. Here is the method:
Each group includes 15 animals. After successful anesthesia of mice, bilateral eyeballs were removed and mice were killed by bleeding. […] Mice were placed in supine position, with segmental […] being toward up. 5 ml serum-free DMEM medium preheated at 37° C. was drawn out using 5 ml aseptic syringe, and middle-lower abdominal skin of mice was lifted with a tweezer, then 5 ml pre-suctioned serum-free DMEM medium preheated at 37° C. was injected to abdominal cavity (note: needlepoint being toward up, avoiding intestinal canal and fat). After that, bilateral peritoneal wall was gently kneaded and pressed for about 20-30 seconds, to make the intraperitoneal fluid fully flow. When collecting the peritoneal fluid, a little cut was opened on mouse hypogastric region using a surgical scissor, and skin was […] toward two sides, to thoroughly expose the peritoneum, then it was wiped and cleaned with 75% alcoholic cotton balls for sterilization. […] (3) Cell phenotype was detected by flow cytometer, and the corresponding marker of same sample was determined using real-time fluorescent quantified PCR. […]

In series [4] the test system is M1-type and M2-type macrophages (iNOS, IL-10, Arg expression). The experiment in a line: Example 3: transformation of M2-type to M1-type macrophages (IL-4) in mouse melanoma B16 model. To be noted: IL-4 + chlorogenic acid 5, 10, 20 mg/kg. In kind it is in vivo. The procedure:
Each group includes 15 animals. After successful anesthesia of mice, bilateral eyeballs were removed and mice were killed by bleeding. […] Mice were placed in supine position, with segmental […] being toward up. 5 ml serum-free DMEM medium preheated at 37° C. was drawn out using 5 ml aseptic syringe, and middle-lower abdominal skin of mice was lifted with a tweezer, then 5 ml medium was injected to abdominal cavity (note: needlepoint being toward up, avoiding intestinal canal and fat). After that, bilateral peritoneal wall was gently kneaded and pressed for about 20-30 seconds, to make the intraperitoneal fluid fully flow. When collecting the peritoneal fluid, a little cut was opened on mouse hypogastric region using a surgical scissor, and skin was […] toward two sides, to thoroughly expose the peritoneum, then it was wiped and cleaned with 75% alcoholic cotton balls for sterilization. […] (3) Cell phenotype was detected by flow cytometer, and the corresponding marker of same sample was determined using real-time fluorescent quantified PCR. […]

The subject of series [5] is mouse melanoma B16. Description: Example 4: tumor inhibitory rate of chlorogenic acid against mouse melanoma B16. An excerpt:
(§2) After inoculation, animals were divided into groups next day, weighed, and administration of drugs started.
Each group includes 15 animals.

Series [6] has as its system mouse melanoma B16. Description: Example 5: chlorogenic acid-cyclophosphamide combination against mouse melanoma B16.
Text: as §2, §1

Series [7] concerns mouse melanoma B16. The experiment in a line: Example 7: chlorogenic acid-5-flurouracil combination against mouse melanoma B16. To be noted: 5-flurouracil 500 mg/kg × 4, i.p.
Description: Next day after inoculation, animals were divided into groups, weighed, and administration of drugs started. Normal saline was administrated to mice in the negative control group by peritoneal injection at 0.2 ml/10 g, once a day.
Each group contains 12 animals. […] Tumor control rate (%) was calculated based on tumor weight.
Where [8] appears, read: dose-dependent, strongest at 20 mg/kg.
The mark [9] stands for this setting: cyclophosphamide 60 mg/kg × 1, i.p.

Structures are written as SMILES.

For the molecule `COc1cccc2c1C(=O)c1c(O)c3c(c(O)c1C2=O)C[C@@](O)(C(=O)CO)C[C@@H]3O[C@H]1C[C@H](N)[C@H](O)[C@H](C)O1` [Adriamycin, adriamycin], in the series on mouse melanoma B16 [1] (adriamycin 3 mg/kg × 6, i.p.), the “Body weight change rate (%)” value is given as 22.39%, the “Tumor inhibitory rate (%)” value is listed as 58.89% and the “Tumor weight (g) x ± SD” value turned out to be 1.90 ± 0.56 g.
`N.N.[Cl][Pt][Cl]` [Cisplatin, cisplatin]: in the series on mouse melanoma B16 [1] (cisplatin 3 mg/kg × 6, i.p.), the “Tumor inhibitory rate (%)” value is on record as 65.97% and the “Tumor weight (g) x ± SD” value was 1.58 ± 0.69 g.
As for `O=C(/C=C/c1ccc(O)c(O)c1)O[C@@H]1C[C@](O)(C(=O)O)C[C@@H](O)[C@H]1O` [Chlorogenic acid, 3-O-caffeoylquinic acid], the “expression of M1-type macrophage marker TNF-α (FIG. 4)” value in series [2] is recorded as “promote the expression”. Moreover, in series [2] (setting [8]), the “expression of M1-type macrophage marker IL-12 (FIG. 2)” value is “obviously promote the expression”, the “expression of M1-type macrophage marker iNOS (FIG. 1)” value is listed as “obviously promote the expression” and the “expression of M2-type macrophage marker Arg (FIG. 3)” value is reported as “obviously inhibit the expression”. The “state of M2-type macrophage marker Arg (FIG. 6)” value in series [3] was “relatively lower state”. The “expression state of M1-type macrophage markers (iNOS, FIG. 5)” value in series [3] (highest at 20 mg/kg) was “maintain the high expression state”. Also, in series [4], the “growth of M1-type macrophage cells (FIG. 7)” value is given as “positive correlation with the dose” and the “growth of M2-type macrophage cells (FIG. 8)” value is listed as “negative correlation with the dose”. In the series with mouse melanoma B16 [5] (5 mg/kg × 13, i.p. once a day), the “Tumor inhibitory rate (%)” value is reported as 17.23% and the “Tumor weight (g) x ± SD” value stood at 2.70 ± 0.76 g. In addition, in the series with mouse melanoma B16 [5] (10 mg/kg × 13, i.p. once a day), the “Tumor inhibitory rate (%)” value stood at 43.87% and the “Tumor weight (g) x ± SD” value is reported as 1.83 ± 0.86 g. For the same molecule, the “Tumor inhibitory rate compared with cyclophosphamide” value in the series on mouse melanoma B16 [5] (20 mg/kg chlorogenic acid vs 60 mg/kg cyclophosphamide) is “close to that of cyclophosphamide”. In the series with mouse melanoma B16 [5] (20 mg/kg × 13, i.p. once a day), the “Tumor inhibitory rate (%)” value worked out at 48.66% and the “Tumor weight (g) x ± SD” value was found to be 1.68 ± 0.69 g. Besides, in the series on mouse melanoma B16 [5] (intraperitoneal injection, 5-20 mg/kg × 13, certain dose-effect relationship), the “effect on growth of mouse melanoma B16” value was “obviously inhibitory effect”. In the series on mouse melanoma B16 [6] (20 mg/kg chlorogenic acid combined with cyclophosphamide 60 mg/kg), the “effect of combination on anti-tumor effects of cyclophosphamide” value is on record as “obviously improve anti-tumor effects of cyclophosphamide”. Further, the “effect on the anti-tumor effect of adriamycin” value with mouse melanoma B16 [1] (20 mg/kg chlorogenic acid + 3 mg/kg adriamycin) is “significantly potentialize”. Besides, in the series with mouse melanoma B16 [1] (20 mg/kg chlorogenic acid + 3 mg/kg cisplatin), the “effect on the anti-tumor effect of cisplatin” value is “significantly potentialize”.
In the case of `O=P1(N(CCCl)CCCl)NCCCO1` (stereo not drawn) [cyclophosphamide, reference compound], the “Tumor inhibitory rate (%)” value turned out to be 57.79% with mouse melanoma B16 [5] (setting [9]) and 61.40% in the series with mouse melanoma B16 [6] (setting [9]). For the same molecule, the “Tumor weight (g) x ± SD” value in the series with mouse melanoma B16 [5] (setting [9]) stood at 1.38 ± 0.62 g; in the series on mouse melanoma B16 [6] (setting [9]), 1.46 ± 0.54 g. In addition, the “Body weight (g) x ± SD End” value in the series on mouse melanoma B16 [5] (cyclophosphamide 60 mg/kg × 1, i.p., C57BL/6 mice, end of study) came to 23.01 ± 1.04 g; in the series on mouse melanoma B16 [6] (cyclophosphamide 60 mg/kg × 1, i.p., end of study), 22.58 ± 1.15 g.
As for `O=c1[nH]cc(F)c(=O)[nH]1` [5-flurouracil, 5-fluorouracil], in the series with mouse melanoma B16 [7], the “Tumor inhibitory rate (%)” value came out at 86.80% and the “Tumor weight (g) x ± SD” value was found to be 0.30 ± 0.18 g. For the same molecule, the “Body weight (g) x ± SD Initial” value with mouse melanoma B16 [7] (BALB/c mice, before dosing) is given as 19.17 ± 0.72 g.
